{"source": "patent US12054509B2", "about": "“Antimicrobial compounds, compositions, and uses thereof” (Lakewood Amedex, Inc., priority 2017, dated 2024)", "format_in_all_cases": "cell-based", "key": {"Candida Albicans": {"tested_on": "Candida Albicans", "assay": "MIC against a single isolate (Example 26)", "settings": "single isolate, read-out: C. albicans MIC", "description": "(§1) Bacterial strains evaluated in this study include Escherichia coli, Klebsiella spp, Serratia marcescens, Proteus mirabilis/vulgaris, Citrobacter spp, Providencia spp, Morganella morganii, Pseudomonas aeruginosa, Staphylococcus aureus (MRSA only), and Enterococcus faecalis. Nu-8 test solutions are adjusted to pH 3.5 with citric acid, and MIC is evaluated per the CLSI methods in Mueller-Hinton broth supplemented accordingly to facilitate growth of specific strains.\n(§2) MIC was determined as per Example 9 using LAI-101, LAI-102, Nu-10, LAI-105, LAI-106, Nu-3, and Nu-8 against a single isolate of Escherichia coli. Pseudomonas aeruginosa, Staphylococcus aureus (MRSA only), and Candida Albicans. For all microbe species, the LAI-101, LAI-102, Nu-10, LAI-105, and LAI-106 all perform at least as well as, and in many experiments better than, Nu-8 and Nu-3, which are both already quite active compounds."}, "Escherichia coli": {"tested_on": "Escherichia coli", "assay": "MIC against a single isolate (Example 26)", "settings": "single isolate, read-out: E. coli MIC", "description": "as §1, §2"}, "[1]": {"tested_on": "Staphylococcus aureus (MRSA only)", "assay": "MIC against a single isolate (Example 26)", "settings": "single isolate, read-out: S. aureus MIC", "description": "as §1, §2"}, "Pseudomonas aeruginosa": {"tested_on": "Pseudomonas aeruginosa", "assay": "MIC against a single isolate (Example 26)", "settings": "single isolate, read-out: P. aeruginosa MIC", "description": "as §1, §2"}, "E. coli (ATCC 25922)": {"tested_on": "E. coli (ATCC 25922)", "assay": "Time kill assay in saline at pH 3.5 (Example 27)", "settings": "for Log10 CFU/mL: pH 3.5", "description": "Log10 5 CFU of E. coli (ATCC 25922) were suspended in saline. Additionally, a sample of the saline only was prepared as a vehicle control (V.C.). Solutions of Nu-3, Nu-8, and Nu-10 at varying concentrations were adjusted to pH 3.5 with citric acid and added to the E. coli suspensions. At each time point (0, 1, 2.5, 5, 10, and 20 minutes), the treated bacterial suspensions were plated and incubated for 24 hrs, and each plate was read to determine the CFU count.\nTables 12-14 provide the time kill assay data for Nu-3 (Table 12), Nu-8 (Table 13) and Nu-10 (Table 14) against E. coli."}}, "data": [{"smiles": "Nc1ncnc2c1ncn2[C@H]1C[C@H](OP(=O)(O)OC2CCCCC2)[C@@H](COP(=O)(O)OC2CCCCC2)O1", "note": "[LAI-105, ((2R,3S,5R)-5-(6-amino-9H-purin-9-yl)-3-(((cyclohexyloxy)(hydroxy)phosphoryl)oxy)tetrahydrofuran-2-yl)methyl cyclohexyl hydrogen phosphate]", "values": [{"measurement": "MIC", "setting": "Candida Albicans", "value": "> 5000", "unit": "µg/mL"}, {"measurement": "MIC", "setting": "Escherichia coli", "value": "> 5000", "unit": "µg/mL"}, {"measurement": "MIC", "setting": "[1]", "value": "> 5000", "unit": "µg/mL"}, {"measurement": "MIC", "setting": "Pseudomonas aeruginosa", "value": 5000, "unit": "µg/mL"}]}, {"smiles": "CCCCOP(=O)(O)OC[C@H]1O[C@@H](n2cnc3c(N)ncnc32)[C@H](OC)[C@@H]1OP(=O)(O)OCCCC", "note": "[LAI-106, ((2R,3R,4R,5R)-5-(6-amino-9H-purin-9-yl)-3-((butoxy(hydroxy)phosphoryl)oxy)-4-methoxytetrahydrofuran-2-yl)methyl butyl hydrogen phosphate]", "values": [{"measurement": "MIC", "setting": "Candida Albicans", "value": 25000, "unit": "µg/mL"}, {"measurement": "MIC", "setting": "Escherichia coli", "value": 1000, "unit": "µg/mL"}, {"measurement": "MIC", "setting": "[1]", "value": 5000, "unit": "µg/mL"}, {"measurement": "MIC", "setting": "Pseudomonas aeruginosa", "value": 5000, "unit": "µg/mL"}]}, {"smiles": "CCCCOP(=O)(O)OC[C@H]1O[C@@H](n2ccc(N)nc2=O)[C@H](OC)[C@@H]1OP(=O)(O)OCCCC", "note": "[Nu-10, ((2R,3R,4R,5R)-5-(4-amino-2-oxopyrimidin-1(2H)-yl)-3-((butoxy(hydroxy)phosphoryl)oxy)-4-methoxytetrahydrofuran-2-yl)methyl butyl hydrogen phosphate]", "values": [{"measurement": "Log10 CFU/mL", "setting": "E. coli (ATCC 25922); 0.1% solution, 0 min", "value": 5.20, "unit": "Log10 CFU/mL"}, {"measurement": "Log10 CFU/mL", "setting": "E. coli (ATCC 25922); 0.1% solution, 1 min", "value": 3.78, "unit": "Log10 CFU/mL"}, {"measurement": "Log10 CFU/mL", "setting": "E. coli (ATCC 25922); 0.1% solution, 2.5 min", "value": 3.38, "unit": "Log10 CFU/mL"}, {"measurement": "Log10 CFU/mL", "setting": "E. coli (ATCC 25922); 0.1% solution, 5 min", "value": 2.57, "unit": "Log10 CFU/mL"}, {"measurement": "Log10 CFU/mL", "setting": "E. coli (ATCC 25922); 0.1% solution, 10 min", "value": 0.00, "unit": "Log10 CFU/mL"}, {"measurement": "Log10 CFU/mL", "setting": "E. coli (ATCC 25922); 0.1% solution, 20 min", "value": 0.00, "unit": "Log10 CFU/mL"}, {"measurement": "Log10 CFU/mL", "setting": "E. coli (ATCC 25922); 0.5% solution, 0 min", "value": 5.20, "unit": "Log10 CFU/mL"}, {"measurement": "Log10 CFU/mL", "setting": "E. coli (ATCC 25922); 0.5% solution, 1 min", "value": 2.51, "unit": "Log10 CFU/mL"}, {"measurement": "Log10 CFU/mL", "setting": "E. coli (ATCC 25922); 0.5% solution, 2.5 min", "value": 0.00, "unit": "Log10 CFU/mL"}, {"measurement": "Log10 CFU/mL", "setting": "E. coli (ATCC 25922); 0.5% solution, 5 min", "value": 0.00, "unit": "Log10 CFU/mL"}, {"measurement": "Log10 CFU/mL", "setting": "E. coli (ATCC 25922); 0.5% solution, 10 min", "value": 0.00, "unit": "Log10 CFU/mL"}, {"measurement": "Log10 CFU/mL", "setting": "E. coli (ATCC 25922); 0.5% solution, 20 min", "value": 0.00, "unit": "Log10 CFU/mL"}, {"measurement": "Log10 CFU/mL", "setting": "E. coli (ATCC 25922); 2.5% solution, 0 min", "value": 5.20, "unit": "Log10 CFU/mL"}, {"measurement": "Log10 CFU/mL", "setting": "E. coli (ATCC 25922); 2.5% solution, 1 min", "value": 0.00, "unit": "Log10 CFU/mL"}, {"measurement": "Log10 CFU/mL", "setting": "E. coli (ATCC 25922); 2.5% solution, 2.5 min", "value": 0.00, "unit": "Log10 CFU/mL"}, {"measurement": "Log10 CFU/mL", "setting": "E. coli (ATCC 25922); 2.5% solution, 5 min", "value": 0.00, "unit": "Log10 CFU/mL"}, {"measurement": "Log10 CFU/mL", "setting": "E. coli (ATCC 25922); 2.5% solution, 10 min", "value": 0.00, "unit": "Log10 CFU/mL"}, {"measurement": "Log10 CFU/mL", "setting": "E. coli (ATCC 25922); 2.5% solution, 20 min", "value": 0.00, "unit": "Log10 CFU/mL"}, {"measurement": "time to complete kill of the bacteria", "setting": "E. coli (ATCC 25922); concentration of 2.5%", "value": "≤ 1", "unit": "min"}, {"measurement": "MIC", "setting": "Candida Albicans", "value": 5000, "unit": "µg/mL"}, {"measurement": "MIC", "setting": "Escherichia coli", "value": 1000, "unit": "µg/mL"}, {"measurement": "MIC", "setting": "[1]", "value": 5000, "unit": "µg/mL"}, {"measurement": "MIC", "setting": "Pseudomonas aeruginosa", "value": 5000, "unit": "µg/mL"}]}]}
